Reference: patent publication US6369089B1, “Interheteroaryl 7-oxabicyclic [2.2.1]heptane oxazoles as prostaglandin F2α antagonists” (Allergan Sales, Inc., priority 2000, dated 2002)

Target: T1, human FP receptor (Homo sapiens, UniProt P43088)
T1 construct: expressed in transfected cells
Test: Ca2+ signaling, antagonism of 17-phenyl PGF2α response in HEK cells stably transfected with the human FP receptor
Format: cell-based
Procedure: HEK cells stably transfected with the human FP receptor were removed from the culture flasks by approximately 1 min treatment with trypsin 0.05%/0.53 mM EDTA in HBSS (Gibco, Grand Island, N.Y.) at 37° C. Proteolytic activity was arrested by adding 5 ml of 10% fetal bovine serum in DMEM. The cells were consecutively washed in Hank's BSS and medium containing 140 mM NaCl, […], 1 mM MgCl2, 1.5 mM CaCl2, 10 mM HEPES: TRIS, 5 mM glucose, 5 mM Na pyruvate, 0.1% bovine serum albumin at pH 7.4: centrifugation for the washes was performed for 15 minutes at 200 g at room temperature. Cells were counted, resuspended in the above medium and incubated with 2×10^−6 M Fura 2/acetoxymethyl ester in a shaking water bath for 30 minutes at 37° C. The cells were subsequently washed in medium as above and resuspended at a concentration of 2×10^6 cells ml^−1. Aliquots of 0.5 ml cell suspension were then added to autocap microtubes to provide 10^6 cells per experimental determination of intracellular free Ca^2+ concentration ([Ca^2+]i).
Fluorescence was measured in a Perkin-Elmer LS-5 fluorescence spectrophotometer at excitation and emission wavelengths of 340 and 492 nm, respectively, with both slits at 10 nm. […]

T1 sequence (P43088 whole entry): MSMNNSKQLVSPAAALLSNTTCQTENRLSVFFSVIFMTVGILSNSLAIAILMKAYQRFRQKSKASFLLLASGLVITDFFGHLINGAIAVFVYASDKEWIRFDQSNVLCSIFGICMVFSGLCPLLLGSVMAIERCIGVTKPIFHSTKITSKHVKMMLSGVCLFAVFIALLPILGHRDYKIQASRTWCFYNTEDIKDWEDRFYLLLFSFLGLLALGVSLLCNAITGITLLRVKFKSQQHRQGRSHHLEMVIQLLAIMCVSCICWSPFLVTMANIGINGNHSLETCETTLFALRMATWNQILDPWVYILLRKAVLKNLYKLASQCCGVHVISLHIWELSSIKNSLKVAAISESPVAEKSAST

Question: How did the “PGF2α antagonist activity (comparison in words)” value turn out when `COC(=O)CCc1ccccc1CC1C2CCC(O2)C1c1nc(C(=O)NCCCCC2CCCCC2)co1` (stereo not shown) was run?
Answer: much less active than the corresponding acid
